Reference: PubChem BioAssay AID248 (DTP/NCI, 2004)
“And” between values parts separate entries of the source, which are not always exact repeats. Equal values may be shown once. Inconclusive results and toxic doses are left out. Cut-off read from the data, not from the text of the source: active = T/C of 150% or more; inactive = T/C below 125%.

Test system: L1210 leukemia ip in BDF1 mice, survival T/C
Experiment: NCI In Vivo Anticancer Drug Screen. Data for tumor model L1210 Leukemia (intraperitoneal) in B6D2F1 (BDF1) mice
Settings: higher = longer survival
Summary of the method: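 Tumor was transplanted into mice, which were then dosed with test compound or vehicle alone. Survival was recorded for each group, and the treated figure was expressed relative to the control figure.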

[1] = endpoint: mean survival time, dose: 100.0 mg/kg/injection, schedule: Q04DX003 (ip), vehicle: saline with Tween-80
[2] = endpoint: mean survival time, dose: 200.0 mg/kg/injection, schedule: Q04DX003 (ip), vehicle: saline with Tween-80
[3] = endpoint: mean survival time, dose: 400.0 mg/kg/injection, schedule: Q04DX003 (ip), vehicle: saline with Tween-80

Measured: T/C

CC(=O)NC(CS)C(=O)O (stereo not drawn)
inactive: endpoint: mean survival time, dose: 100.0 mg/kg/injection, schedule: Q01DX001 (ip), vehicle: saline 96 % of control | endpoint: mean survival time, dose: 200.0 mg/kg/injection, schedule: Q01DX001 (ip), vehicle: saline 95 % of control | endpoint: mean survival time, dose: 400.0 mg/kg/injection, schedule: Q01DX001 (ip), vehicle: saline 98 % of control | endpoint: median survival time, dose: 250.0 mg/kg/injection, schedule: Q01DX001 (ip), vehicle: saline 100 % of control | endpoint: median survival time, dose: 500.0 mg/kg/injection, schedule: Q01DX001 (ip), vehicle: none 101 % of control | endpoint: median survival time, dose: 750.0 mg/kg/injection, schedule: Q01DX001 (ip), vehicle: none 99 % of control | endpoint: median survival time, dose: 750.0 mg/kg/injection, schedule: Q01DX001 (ip), vehicle: saline 100 % of control | endpoint: median survival time, dose: 1000.0 mg/kg/injection, schedule: Q01DX001 (ip), vehicle: none 97 % of control and 106 % of control | endpoint: median survival time, dose: 1000.0 mg/kg/injection, schedule: Q01DX009 (ip), vehicle: saline 93 % of control | endpoint: median survival time, dose: 1000.0 mg/kg/injection, schedule: Q01DX014 (ip), vehicle: saline 100 % of control and 102 % of control | endpoint: median survival time, dose: 1000.0 mg/kg/injection, schedule: Q07DX003 (ip), vehicle: saline 94 % of control | endpoint: median survival time, dose: 1500.0 mg/kg/injection, schedule: Q01DX001 (ip), vehicle: none 113 % of control | endpoint: median survival time, dose: 1500.0 mg/kg/injection, schedule: Q01DX009 (ip), vehicle: saline 96 % of control | endpoint: median survival time, dose: 1500.0 mg/kg/injection, schedule: Q01DX014 (ip), vehicle: saline 102 % of control and 105 % of control | endpoint: median survival time, dose: 1500.0 mg/kg/injection, schedule: Q07DX003 (ip), vehicle: saline 94 % of control | endpoint: median survival time, dose: 2000.0 mg/kg/injection, schedule: Q01DX001 (ip), vehicle: saline 100 % of control

CC(C)(C)C(=O)C(C)(C)C
inactive: endpoint: mean survival time, dose: 100.0 mg/kg/injection, schedule: Q01DX001 (ip), vehicle: carboxymethylcellulose (CMC) 106 % of control | endpoint: mean survival time, dose: 200.0 mg/kg/injection, schedule: Q01DX001 (ip), vehicle: carboxymethylcellulose (CMC) 101 % of control

Cc1cc(CC(O)(C(F)(F)F)C(F)(F)F)c(C#N)c(=O)[nH]1
inactive: [1] 97 % of control | [2] 97 % of control | [3] 97 % of control

COC(=O)Nc1ccc(N)c(NC(=O)OC)n1
inactive: endpoint: mean survival time, dose: 100.0 mg/kg/injection, schedule: Q01DX009 (ip), vehicle: Klucel (hydroxypropylcellulose) (HPC) 92 % of control | endpoint: mean survival time, dose: 100.0 mg/kg/injection, schedule: Q04DX003 (ip), vehicle: Klucel (hydroxypropylcellulose) (HPC) 106 % of control | endpoint: mean survival time, dose: 200.0 mg/kg/injection, schedule: Q01DX009 (ip), vehicle: Klucel (hydroxypropylcellulose) (HPC) 89 % of control | endpoint: mean survival time, dose: 200.0 mg/kg/injection, schedule: Q04DX003 (ip), vehicle: Klucel (hydroxypropylcellulose) (HPC) 99 % of control | endpoint: mean survival time, dose: 400.0 mg/kg/injection, schedule: Q01DX009 (ip), vehicle: Klucel (hydroxypropylcellulose) (HPC) 87 % of control | endpoint: mean survival time, dose: 400.0 mg/kg/injection, schedule: Q04DX003 (ip), vehicle: Klucel (hydroxypropylcellulose) (HPC) 100 % of control

CNC(=O)c1ccc[n+](Cc2ccccc2)c1
inactive: endpoint: mean survival time, dose: 18.75 mg/kg/injection, schedule: Q01DX009 (ip), vehicle: saline 94 % of control | endpoint: mean survival time, dose: 37.5 mg/kg/injection, schedule: Q01DX009 (ip), vehicle: saline 100 % of control | endpoint: mean survival time, dose: 37.5 mg/kg/injection, schedule: Q04DX003 (ip), vehicle: saline 97 % of control | endpoint: mean survival time, dose: 75.0 mg/kg/injection, schedule: Q01DX001 (ip), vehicle: saline 106 % of control | endpoint: mean survival time, dose: 75.0 mg/kg/injection, schedule: Q01DX009 (ip), vehicle: saline 92 % of control | endpoint: mean survival time, dose: 75.0 mg/kg/injection, schedule: Q04DX003 (ip), vehicle: saline 101 % of control | endpoint: mean survival time, dose: 150.0 mg/kg/injection, schedule: Q01DX001 (ip), vehicle: saline 101 % of control | endpoint: mean survival time, dose: 150.0 mg/kg/injection, schedule: Q04DX003 (ip), vehicle: saline 100 % of control

CCOc1ccc(/C=N/NS(=O)(=O)c2ccccc2)cc1OC
inactive: endpoint: mean survival time, dose: 100.0 mg/kg/injection, schedule: Q01DX009 (ip), vehicle: saline with Tween-80 94 % of control | endpoint: mean survival time, dose: 100.0 mg/kg/injection, schedule: Q04DX003 (ip), vehicle: saline sonified 107 % of control | endpoint: mean survival time, dose: 200.0 mg/kg/injection, schedule: Q01DX009 (ip), vehicle: saline with Tween-80 98 % of control | endpoint: mean survival time, dose: 200.0 mg/kg/injection, schedule: Q04DX003 (ip), vehicle: saline sonified 86 % of control | endpoint: mean survival time, dose: 400.0 mg/kg/injection, schedule: Q01DX009 (ip), vehicle: saline with Tween-80 89 % of control | endpoint: mean survival time, dose: 400.0 mg/kg/injection, schedule: Q04DX003 (ip), vehicle: saline sonified 98 % of control

O=C(O)CC[P+](c1ccccc1)(c1ccccc1)c1ccccc1
inactive: [1] 90 % of control | [2] 98 % of control | [3] 93 % of control

Cc1ncnc2c1ncn2C1OC(CO)C(O)C1O (stereo not drawn)
inactive: endpoint: mean survival time, dose: 0.24 mg/kg/injection, schedule: Q01DX015 (ip), vehicle: saline 103 % of control | endpoint: mean survival time, dose: 0.36 mg/kg/injection, schedule: Q01DX015 (ip), vehicle: saline 106 % of control | endpoint: mean survival time, dose: 0.54 mg/kg/injection, schedule: Q01DX015 (ip), vehicle: saline 116 % of control | endpoint: mean survival time, dose: 1.21 mg/kg/injection, schedule: Q01DX015 (ip), vehicle: saline 109 % of control and 110 % of control
